Each structure is given as a SMILES string. Read-outs that look alike come from different tables or passages of the source.

The experiment has as its system HIV-1 LAI envelope single-round infectious reporter virus. Description: Single-round infectious HIV-1 LAI luciferase reporter virus infection of MT2 cells. It is filed as cell-based. The settings on record: Human immunodeficiency virus 1, MT2, 72 h. The text has this: • Virus production—Human embryonic Kidney cell line, 293T (HEK 293T), was propagated in Dulbecco's Modified Eagle Medium (Invitrogen, Carlsbad, Calif.) containing 10% fetal bovine serum (FBS, Sigma, St. Louis, Mo.). The human T-cell leukemia cell MT2 (AIDS Research and Reference Reagent Program, Cat. 237) was propagated in RPMI 1640 (Invitrogen, Carlsbad, Calif.) containing 10% fetal bovine serum (FBS, Hyclone, Logan, Utah) • Virus infection—Single-round infectious reporter virus was produced by co-transfecting HEK 293T cells with plasmide expressing the HIV-1 LAI envelope along with a plasmid containing an HIV-1 LAI proviral cDNA with the envelope gene replaced by a firefly luciferase reporter gene (Chen et al., Ref. 41). Transfections were performed using lipofectAMINE PLUS reagent as described by the manufacturer (Invitrogen, Carlsbad, Calif.).
• 1. MT2 cells were plated in black, 384 well plates at a cell density of 5×10^3 cells per well in 25 μl RPMI 1640 containing 10% FBS. • 2. Compound (diluted in dimethylsulfoxide and growth medium) was added to cells at 12.5 μl/well, so that the final assay concentration would be ≦50 nM. • 3. 12.5 μl of single-round infectious reporter virus in Dulbecco's Modified Eagle Medium was added to the plated cells and compound at an approximate multiplicity of infection (MOI) of 0.01, resulting in a final volume of 50 μl per well. • 4. Virus-infected cells were incubated at 37 degrees Celsius in a CO2 incubator and harvested 72 h after infection. • 5. Viral infection was monitored by measuring luciferase expression in the infected cells using a luciferase reporter gene assay kit (Steady-Glo, Promega, Madison, Wis.) as described by the manufacturer. Luciferase activity was then quantified by measuring luminescence using an EnVision Multilabel Plate Readers (PerkinElmer, Waltham, Mass.). • 6. The percent inhibition for each compound was calculated by quantifying the level of luciferase expression in cells infected in the presence of each compound as a percentage of that observed for cells infected in the absence of compound and subtracting such a determined value from 100. • 7. An EC50 provides a method for comparing the antiviral potency of the compounds of the invention. The effective concentration for fifty percent inhibition (EC50) was calculated with the Microsoft Excel Xlfit curve fitting software. For each compound, curves were generated from percent inhibition calculated at 10 different concentrations by using a four parameter logistic model (model 205). Table 1 is the key for the data in Table 2.
For orientation: In a reporter assay the amount or activity of a reporter protein is the signal.

The mark [1] stands for this setting: read-out: EC50 Group from Table 1.

Broadly, the EC50 is the concentration that produces a half-maximal response. For the compound `O=C(C(=O)N1CCN(c2ncnc3ncccc23)CC1)c1c[nH]c2c(-n3ccnn3)ncc(F)c12` [Compound 2008], the concentration for a half-maximal effect (EC50) stood at 1.24 nM. Also, under setting [1], the concentration giving a half-maximal response (EC50) was under 500 nM.

For `COc1cnc(-n2cnc(C)n2)c2[nH]cc(C(=O)C(=O)N3CCN(C4(c5ccccn5)CC4)CC3)c12` [Compound 1003], under setting [1], the concentration for a half-maximal effect (EC50) is over 500 nM.

With `COc1cnc(-n2cnc(C)n2)c2[nH]cc(C(=O)C(=O)N3CCN(c4cccc5cccnc45)CC3)c12` [Compound 2005], the 50% effective concentration (EC50) under setting [1] is under 500 nM.

On to `COc1cnc(-n2cnc(C)n2)c2[nH]cc(C(=O)C(=O)N3CCN(c4ncnc5ncccc45)CC3)c12` [Compound 2006], for which, under setting [1], the EC50 was under 500 nM.

As for `COc1cnc(-n2ccnn2)c2[nH]cc(C(=O)C(=O)N3CCN(c4ncnc5ncccc45)CC3)c12` [Compound 2007], the concentration for a half-maximal effect (EC50) under setting [1] was under 500 nM.

Turning to `O=C(C(=O)N1CCN(c2cccc3cccnc23)CC1)c1c[nH]c2c(-n3ccnn3)ncc(F)c12` [Compound 2004], under setting [1], the EC50 was under 500 nM.

Consider `COc1cnc(-n2cnc(C)n2)c2[nH]cc(C(=O)C(=O)N3CCN(c4nccc5cccnc45)CC3)c12` [Compound 2002], for which the EC50 under setting [1] was under 500 nM.

`O=C(C(=O)N1CCCN(c2ccccn2)CC1)c1c[nH]c2c(-n3ccnn3)ncc(F)c12` [Compound 1008] came in with an EC50 of 89.4 nM. In addition, the EC50 under setting [1] is under 500 nM.

With `COc1cnc(-n2cnc(C)n2)c2[nH]cc(C(=O)C(=O)N3CCN(c4ccccc4-c4nc5ccccc5s4)CC3)c12` [Compound 1010], the EC50 under setting [1] is under 500 nM.

Turning to `O=C(C(=O)N1CCCN(Cc2ccccc2)CC1)c1c[nH]c2c(-n3ccnn3)ncc(F)c12` [Compound 1007], the EC50 under setting [1] was under 500 nM.

`COc1cnc(-n2cnc(C)n2)c2[nH]cc(C(=O)C(=O)N3CCN(C4=NCCc5ccccc54)CC3)c12` [Compound 1001] had a 50% effective concentration (EC50) of 0.85 nM. Also, the EC50 under setting [1] was under 500 nM.

As to `O=C(C(=O)N1CCCN(c2nnnn2-c2ccccc2)CC1)c1c[nH]c2c(-n3ccnn3)ncc(F)c12` [Compound 1009], the EC50 under setting [1] is under 500 nM.

For the compound `COc1cnc(-n2cnc(C)n2)c2[nH]cc(C(=O)C(=O)N3CCN(c4cccc5ccncc45)CC3)c12` [Compound 2003], the EC50 under setting [1] is under 500 nM.

Consider `COc1cnc(-n2cnc(C(N)=O)n2)c2[nH]cc(C(=O)C(=O)N3CCN(c4nc5ccccn5n4)CC3)c12` [Compound 1004], for which, under setting [1], the EC50 was under 500 nM.

`O=C(C(=O)N1CCN(c2cccc3ccccc23)CC1)c1c[nH]c2c(-n3ccnn3)ncc(F)c12` [Compound 2001] registered a half-maximal effective concentration (EC50) of 2.97 nM. Also, the concentration giving a half-maximal response (EC50) under setting [1] is under 500 nM.

In the case of `O=C(C(=O)N1CCN(Cc2ccccn2)CC1)c1c[nH]c2c(-n3ccnn3)ncc(F)c12` [Compound 1006], the EC50 under setting [1] is under 500 nM.

For the compound `COc1cnc(-n2cnc(C)n2)c2[nH]cc(C(=O)C(=O)N3CCN(C4(c5ccccc5)CC4)CC3)c12` [Compound 1002], the EC50 under setting [1] was over 500 nM.

Consider `CC(c1ccccc1)N1CCN(C(=O)C(=O)c2c[nH]c3c(-n4ccnn4)ncc(F)c23)CC1` (stereo not shown) [Compound 1005], for which the EC50 under setting [1] was under 500 nM.

These data come from patent US20160052923A1, “PIPERAZINE AND HOMOPIPERAZINE DERIVATIVES AS HIV […]” (priority 2013, published 2016).
